{
  "source": "patent US6958318B2",
  "about": "“Recombinant bacterial cells for delivery of PNP to tumor cells” (The UAB Research Foundation, priority 1993, dated 2005)",
  "key": {"[1]": {"assay": "Systemically administered dose response (toxicity) in mice", "type": "in vivo", "experimental": "The formula of Freireich et al., Cancer Chemother. Rep., 50:219-244, (1966) can be used to determine the maximum tolerated dose of substrate for a human subject. […] This amount or slightly less should result in maximal effectiveness of tumor cell killing in humans without killing the subject. This standard of effectiveness is accepted in the field of cancer therapy. However, more preferred is a range of from about 10% to 1% of the maximum tolerated dosage (for example, 7.5 mg/m^2-0.75 mg/m^2). Furthermore, it is understood that modes of administration that permit the substrate to remain localized at or near the site of the tumor will be effective at lower doses than systemically administered substrates."}, "16/C-PNP cells": {"test_system": "16/C-PNP cells", "assay": "16/C-PNP tumors in athymic nude mice"}, "E. coli PNP": {"biological_target": "E. coli PNP (Escherichia coli, UniProt P0ABP8)", "sequence (P0ABP8 2-239)": "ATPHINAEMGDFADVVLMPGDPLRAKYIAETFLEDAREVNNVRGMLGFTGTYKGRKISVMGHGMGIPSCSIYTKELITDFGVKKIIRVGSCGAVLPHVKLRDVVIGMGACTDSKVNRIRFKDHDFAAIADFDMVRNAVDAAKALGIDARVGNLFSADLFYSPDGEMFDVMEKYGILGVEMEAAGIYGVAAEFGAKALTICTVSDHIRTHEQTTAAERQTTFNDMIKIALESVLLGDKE", "type": "biochemical"}, "D54 glioma tumors": {"test_system": "D54 glioma tumors", "assay": "D54 tumors of mixed wild-type and transduced cells (80 to 20)", "conditions": "in vivo"}, "Lewis Lung tumors": {"test_system": "Lewis Lung tumors", "assay": "Lewis Lung tumors treated with recombinant E. coli and MeP-dR"}, "[2]": {"test_system": "wild type murine breast carcinoma cells (16/C cell line)", "assay": "Wild-type 16/C tumors in nude mice", "type": "in vivo", "conditions": "FIG. 6", "experimental": "For studies conducted with nu/nu mice, cells obtained from stable cultures of transduced cell lines were injected subcutaneously into the right or left flank of the mice. Mice with visible tumor growth were used for further studies. For the administration of purine prodrug, mice were administered MeP-dR or F-araAMP by IP injection.\nFour to five nude (nu/nu) mice per group were inoculated with wild type murine breast carcinoma cells (16/C cell line), or PNP transduced 16/C cells. Mice with established tumors (approximately 100 mm^3) were treated with MeP-dR (100 mg/kg/d IP×3 d) or F-araAMP (100 mg/kg/IP 3 id×3 d)."}, "[3]": {"assay": "Stability under tissue culture conditions (HPLC of supernatants)", "conditions": "HPLC analysis of supernatants"}, "HEp-2 cells": {"test_system": "HEp-2 cells", "assay": "Toxicity to HEp-2 cells", "type": "cell-based"}, "wild-type 16/C tumors": {"test_system": "wild-type 16/C tumors", "assay": "Wild-type 16/C tumors in B6C3F1 mice", "type": "in vivo", "experimental": "Transduced 16/C cells were implanted in mice by subcutaneous injection of approximately 10^6 cells harvested from the cultures of stably transduced 16/C cells described above. The mice were examined visibly for tumor growth and those with developing tumors were maintained. To prepare mice for use in the in vivo experiments, the tumors were removed from mice with significant tumor growth and cut into 30-60 mg pieces. One 30-60 mg piece of the tumor was subcutaneously implanted into the subaxillary region of each female B6C3F1 mouse. The tumors were allowed to develop and mice with tumors of 100 mm^3 were used.\nSix mice (B6C3F1) per group with established wild type 16/C tumors were treated with an aqueous control solution, MeP-dR (100 mg/kg IP qd×3d) or 2-fluoro-arabinofuranosyladenine monophosphate (F-araAMP) (100 mg/kg IP, […]). The wild type tumors grew rapidly in the presence or absence of either of the prodrugs. […] (Table III, Wild-type 16/C treatment)."}, "[4]": {"test_system": "T-84 colon carcinoma cells transfected with E. coli PNP", "assay": "Toxicity of MeP-dR in T-84 cells transfected with E. coli PNP", "type": "cell-based, human", "experimental": "Cationic liposome mediated gene transfer was used to transfect T-84 colon carcinoma cells. Briefly, 6 μg of plasmid containing PNP or LacZ was added to 10 μg of a 1:1 molar mixture of DOTMA/DOPE (LipofectinJ (GIBCO/BRL, Gaithersburg, Md.)) in a final volume of 200 μl DMEM/FI2 serum free medium. After a 10 minute incubation at room temperature, the DNA-lipid mixture was added to 500 μl serum free medium and was used to cover the cells within a tray. Four hours later, transfection medium was removed from each well and 2 ml DMEM/FI2 with 10% fetal bovine serum was added.\nForty-eight hours following transfection, fresh medium was added and MeP-dR (1 mg/ml in PBS) was added directly to the cells to achieve the desired final concentrations. Cell viability was measured 5 days following treatment as described for the MeP-dR toxicity study.\nAfter 5 days the cells were removed from each well and the number of dye excluding cells were determined with the aid of a hemacytometer. 30-50% toxicity due to the DOTMA-DOPE transfection protocol is acceptable for cationic liposome mediated gene transfer to T-84 in vitro when performed under optimal conditions.\nIn an additional experiment, approximately 2×10^5 cells per well were transfected as above using 6 μg of plasmid containing E. coli PNP cDNA. Two days after transfection, varying concentrations of MeP-dR (0, 2, 4, 20, 40 and 160 μM) were added to the wells, and after 5 days the dye excluding cells were counted with the aid of a hemacytometer.\nAn experiment was also performed in triplicate in which 2×10^5 cells per well were transfected with LacZ or PNP using the protocol described for transfection. Two days after transfection, 16 μM MeP-dR was added to one set of the cultures transfected with PNP and one set of the cultures transfected with LacZ."}, "[5]": {"conditions": "67 mg/kg, IP Qd×3d plus recombinant E. coli"}, "[6]": {"conditions": "IP for three days, MeP-dR 100, F-araAMP 500 mg/kg/day"}},
  "note": "Like-named read-outs stand apart in the source and are kept apart here.",
  "data": [
    {"smiles": "Cc1ncnc2c1ncn2[C@H]1C[C@H](O)[C@@H](CO)O1", "note": "[MeP-dR, 9-(β-D-2-deoxyerythropentofuranosyl)-6-methylpurine]", "values": [
      {"measurement": "Toxicity in mice", "setting": "[1]; 25 mg per kg per day for 9 days", "result": "some toxicity but no lethality"},
      {"measurement": "Human dosage (maximum tolerated dose) by formula of Freireich", "setting": "[1]; 25 mg/kg×3", "result": 75, "unit": "mg/m^2"},
      {"measurement": "Tumor detection, early treatment group", "setting": "16/C-PNP cells; 100 mg/kg IP days 1-4", "result": "none of the mice had any detectable tumor up to 18 days post engraftment"},
      {"measurement": "Deaths, early treatment group", "setting": "16/C-PNP cells; 100 mg/kg IP days 1-4, n=4", "result": "two more died at day 20"},
      {"measurement": "Survival, late treatment group", "setting": "16/C-PNP cells; 100 mg/kg IP days 13, 14, 15", "result": "All of these animals survived for the complete experiment"},
      {"measurement": "Tumor size, late treatment group", "setting": "16/C-PNP cells; 100 mg/kg IP days 13, 14, 15", "result": "did not increase in size after day 15"},
      {"measurement": "Antitumor effect of MeP-dR on PNP-transduced 16/C tumors", "setting": "16/C-PNP cells; days 13-15 or days 1-4", "result": "substantial antitumor effects"},
      {"measurement": "MeP-dR converted to MeP", "setting": "E. coli PNP; extracts of E. coli PNP transfected T-84 cells, 100 μM, 24 hours, 25° C.", "result": "Approximately 24%"},
      {"measurement": "MeP-dR converted to MeP", "setting": "E. coli PNP; extracts of LacZ transfected T-84 cells", "result": "no conversion occurred"},
      {"measurement": "Activity against tumors of wild-type and transduced cells at 80 to 20", "setting": "D54 glioma tumors", "result": "less active"},
      {"measurement": "Delay of tumor growth", "setting": "Lewis Lung tumors; 33.5 mg/kg once a day for three days plus recombinant E. coli", "result": "approximately 42%"},
      {"measurement": "Host toxicity", "setting": "Lewis Lung tumors; 33.5 mg/kg plus recombinant E. coli", "result": "without host toxicity"},
      {"measurement": "Anti-tumor effect", "setting": "Lewis Lung tumors; [5]", "result": "anti-tumor effects were again observed"},
      {"measurement": "Host toxicity", "setting": "Lewis Lung tumors; [5]", "result": "toxic, with several deaths"},
      {"measurement": "Effect on growth of wild-type 16/C tumors", "setting": "[2]", "result": "only a small effect on tumor growth"},
      {"measurement": "Stability under tissue culture conditions", "setting": "[3]", "result": "stable"},
      {"measurement": "Fold less toxic than 6-methylpurine (MeP)", "setting": "HEp-2 cells", "result": 20, "unit": "fold"},
      {"measurement": "Complete Regressions/Total", "setting": "wild-type 16/C tumors; [6]", "result": "0/6"},
      {"measurement": "Day delay (Treated-control)", "setting": "wild-type 16/C tumors; [6]", "result": 2.4, "unit": "days"},
      {"measurement": "Nonspecific Deaths/Total", "setting": "wild-type 16/C tumors; [6]", "result": "0/6"},
      {"measurement": "Delay in tumor growth, in words", "setting": "wild-type 16/C tumors; wild type 16/C", "result": "no statistically significant delay in tumor growth"},
      {"measurement": "Inhibition of cell growth", "setting": "[4]; 4 μM, 5 days, 6 μg PNP plasmid", "result": "greater than 80%"},
      {"measurement": "Killing after PNP transfection", "setting": "[4]; 16 μM", "result": "Substantial killing"},
      {"measurement": "Killing of cells transfected with E. coli PNP", "setting": "[4]; 160 μM, 5 days", "result": "killed virtually all of the cells"}
    ]}
  ]
}
